PubChem BioAssay (NCI)
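96-well plates; 48 h exposure; 5 concentrations. Endpoints by linear interpolation between flanking doses. Not reached: highest tested concentration assigned. At the GI50, growth is halved. TGI is the concentration that stops growth completely.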

Tests used:
Assay in all cases: NCI tumour cell line growth inhibition, 48 h
[1] = system: 786-0 renal
[2] = system: A498 renal
[3] = system: A549 NSCLC
[4] = system: ACHN renal
[5] = system: BT-549 breast
[6] = system: CAKI-1 renal
[7] = system: CCRF-CEM leukemia
[8] = system: COLO 205 colon
[9] = system: DU-145 prostate
[10] = system: EKVX NSCLC
[11] = system: HCC-2998 colon
[12] = system: HCT-116 colon
[13] = system: HCT-15 colon
[14] = system: HL-60(TB) leukemia
[15] = system: HOP-62 NSCLC
[16] = system: HOP-92 NSCLC
[17] = system: HS 578T breast
[18] = system: HT29 colon
[19] = system: IGROV1 ovarian
[20] = system: K-562 leukemia
[21] = system: KM12 colon
[22] = system: LOX IMVI melanoma
[23] = system: M14 melanoma
[24] = system: MALME-3M melanoma
[25] = system: MCF7 breast
[26] = system: MDA-MB-231 breast
[27] = system: MDA-MB-435
[28] = system: MDA-MB-468 breast
[29] = system: MOLT-4 leukemia
[30] = system: NCI-H226 lung
[31] = system: NCI-H23 lung
[32] = system: NCI-H460 lung
[33] = system: NCI-H522 lung
[34] = system: NCI/ADR-RES ovarian
[35] = system: OVCAR-3 ovarian
[36] = system: OVCAR-4 ovarian
[37] = system: OVCAR-5 ovarian
[38] = system: OVCAR-8 ovarian
[39] = system: PC-3 prostate
[40] = system: RPMI-8226 leukemia
[41] = system: RXF 393 renal
[42] = system: SF-268 CNS
[43] = system: SF-295 CNS
[44] = system: SF-539 CNS
[45] = system: SK-MEL-2 melanoma
[46] = system: SK-MEL-28 melanoma
[47] = system: SK-MEL-5 melanoma
[48] = system: SK-OV-3 ovarian
[49] = system: SN12C renal
[50] = system: SNB-19 CNS
[51] = system: SR leukemia
[52] = system: SW-620 colon
[53] = system: T-47D breast
[54] = system: TK-10 renal
[55] = system: U251 CNS
[56] = system: UACC-257 melanoma
[57] = system: UACC-62 melanoma
[58] = system: UO-31 renal

## COc1ccc2[nH]cc(-c3nc(N)nnc3-c3cn(C)c4ncc(Br)cc34)c2c1
[1]
  GI50: 545 nM
  TGI: 22200 nM
[2]
  GI50: 12600 nM
  TGI: 48100 nM
[3]
  GI50: 769 nM
  TGI: > 95300 nM
[4]
  GI50: 642 nM
  TGI: 30500 nM
[5]
  GI50: 469 nM
  TGI: 7260 nM
[6]
  GI50: 342 nM
  TGI: > 50800 nM
[7]
  GI50: 379 nM
  TGI: > 84300 nM
[8]
  GI50: 305 nM
  TGI: 1180 nM
[9]
  GI50: 446 nM
  TGI: > 49700 nM
[10]
  GI50: 864 nM
  TGI: > 72800 nM
[11]
  GI50: 910 nM
  TGI: 12900 nM
[12]
  GI50: 373 nM
  TGI: 13800 nM
[13]
  GI50: 354 nM
  TGI: 21400 nM
[14]
  GI50: 168 nM
  TGI: 3910 nM
[15]
  GI50: 547 nM
  TGI: > 76900 nM
[16]
  GI50: 572 nM
  TGI: 14300 nM
[17]
  GI50: 319 nM
  TGI: > 78300 nM
[18]
  GI50: 317 nM
  TGI: 2550 nM
[19]
  GI50: 923 nM
  TGI: 25000 nM
[20]
  GI50: 85 nM
  TGI: > 100000 nM
[21]
  GI50: 241 nM
  TGI: 17500 nM
[22]
  GI50: 484 nM
  TGI: 20100 nM
[23]
  GI50: 292 nM
  TGI: 30300 nM
[24]
  GI50: 335 nM
  TGI: 23000 nM
[25]
  GI50: 75.6 nM
  TGI: 25300 nM
[26]
  GI50: 882 nM
  TGI: 48600 nM
[27]
  GI50: 37.9 nM
  TGI: 205 nM
[28]
  GI50: 30.1 nM
  TGI: 631 nM
[29]
  GI50: 524 nM
  TGI: > 76700 nM
[30]
  GI50: 676 nM
  TGI: 9150 nM
[31]
  GI50: 461 nM
  TGI: 21700 nM
[32]
  GI50: 382 nM
  TGI: 18000 nM
[33]
  GI50: 26.6 nM
  TGI: 120 nM
[34]
  GI50: 1450 nM
  TGI: 11200 nM
[35]
  GI50: 250 nM
  TGI: 2660 nM
[36]
  GI50: 1440 nM
  TGI: > 95500 nM
[37]
  GI50: 568 nM
  TGI: > 100000 nM
[38]
  GI50: 851 nM
  TGI: 22900 nM
[39]
  GI50: 311 nM
  TGI: > 60100 nM
[40]
  GI50: 430 nM
  TGI: > 40800 nM
[41]
  GI50: 244 nM
  TGI: 3890 nM
[42]
  GI50: 1580 nM
  TGI: 29600 nM
[43]
  GI50: 230 nM
  TGI: 10300 nM
[44]
  GI50: 255 nM
  TGI: 844 nM
[45]
  GI50: 335 nM
  TGI: 15400 nM
[46]
  GI50: 966 nM
  TGI: 34400 nM
[47]
  GI50: 233 nM
  TGI: 4050 nM
[48]
  GI50: 482 nM
  TGI: 48100 nM
[49]
  GI50: 494 nM
  TGI: 26400 nM
[50]
  GI50: 738 nM
  TGI: > 100000 nM
[51]
  GI50: 69.3 nM
  TGI: > 100000 nM
[52]
  GI50: 304 nM
  TGI: > 62400 nM
[53]
  GI50: 192 nM
  TGI: 97200 nM
[54]
  GI50: 13100 nM
  TGI: 42400 nM
[55]
  GI50: 491 nM
  TGI: 38600 nM
[56]
  GI50: 724 nM
  TGI: 27800 nM
[57]
  GI50: 184 nM
  TGI: 13300 nM
[58]
  GI50: 717 nM
  TGI: 20300 nM
